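Tested at 5 concentrations; 48 h exposure; 96-well plates; endpoints linearly interpolated, else capped at highest concentration. TGI is the concentration that stops growth completely.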

Among the test systems are A549 NSCLC; CCRF-CEM leukemia; HCT-116 colon; HOP-62 NSCLC; M14 melanoma; NCI-H460 lung; NCI-H522 lung; OVCAR-4 ovarian; RPMI-8226 leukemia; RXF 393 renal; SK-MEL-2 melanoma; SK-OV-3 ovarian; SW-620 colon; SR leukemia; MCF7 breast; PC-3 prostate.
Holding throughout (assay): NCI anticancer screen, dose series, 48 h

Regarding `Cc1nc(N)c(-c2ccccc2)s1`, the TGI in the test with A549 NSCLC was above 100 µM; in the test with CCRF-CEM leukemia, above 73.9 µM; in the test on HCT-116 colon it was above 66.8 µM; in the test on HOP-62 NSCLC, above 100 µM; with M14 melanoma, above 100 µM; in the test with NCI-H460 lung, above 100 µM. Besides, the TGI is above 100 µM in the test on NCI-H522 lung; above 100 µM in the test on OVCAR-4 ovarian; above 72.1 µM with RPMI-8226 leukemia; above 68.9 µM in the test with RXF 393 renal; above 100 µM in the test with SK-MEL-2 melanoma; above 100 µM in the test on SK-OV-3 ovarian. The compound also registered a TGI with SW-620 colon above 45.6 µM.

As to `CC(C)N(C(=O)C12C3C4C1C1C2C3C41I)C(C)C` (stereo not given), the TGI in the test on A549 NSCLC, in the test with CCRF-CEM leukemia, in the test with HCT-116 colon, in the test on M14 melanoma, with NCI-H460 lung and in the test with NCI-H522 lung was above 100 µM each time. Moreover, the TGI in the test with OVCAR-4 ovarian, in the test on SK-OV-3 ovarian, in the test with SR leukemia and in the test on SW-620 colon was above 100 µM each time.

As for `COc1ccccc1-n1c(N)c2c(C)c(-c3ccccc3)[nH]c2nc1=S`, the TGI with A549 NSCLC, with CCRF-CEM leukemia, with HCT-116 colon, in the test on HOP-62 NSCLC, in the test on M14 melanoma and in the test on NCI-H460 lung was above 100 µM each time. Further, the TGI with NCI-H522 lung, with OVCAR-4 ovarian, in the test on RPMI-8226 leukemia, with SK-MEL-2 melanoma, in the test with SR leukemia and in the test on SW-620 colon was above 100 µM each time.

`O=C(Cc1ccc([N+](=O)[O-])c([N+](=O)[O-])c1CC(=O)C(=O)Nc1cc(Cl)ccc1Cl)C(=O)Nc1cc(Cl)ccc1Cl`: the TGI with A549 NSCLC, in the test with CCRF-CEM leukemia, with HCT-116 colon, with HOP-62 NSCLC, in the test with M14 melanoma and in the test on NCI-H460 lung was above 100 µM in each case. The TGI in the test with OVCAR-4 ovarian was above 100 µM; in the test with RPMI-8226 leukemia, above 100 µM; in the test with RXF 393 renal it was 94.7 µM; with SK-MEL-2 melanoma it was above 100 µM; in the test on SK-OV-3 ovarian it was above 100 µM; in the test on SR leukemia, above 100 µM. This compound gave a TGI in the test on SW-620 colon above 100 µM.

For `CC/C(=N/O)c1ccc2[nH]c3c(C)cc([N+](=O)[O-])c(C)c3c2c1`, the TGI with A549 NSCLC, in the test on CCRF-CEM leukemia, in the test with HCT-116 colon, with HOP-62 NSCLC, in the test with M14 melanoma and with NCI-H460 lung was above 100 µM throughout. In addition, the TGI in the test on NCI-H522 lung, with OVCAR-4 ovarian, in the test with RPMI-8226 leukemia, with SK-MEL-2 melanoma, in the test on SR leukemia and in the test on SW-620 colon was above 100 µM in each case.

Turning to `Cc1cc(C)c2c(c1)N[S@@](=O)S2`, the TGI in the test on A549 NSCLC is above 100 µM; with CCRF-CEM leukemia, 61.3 µM; in the test on HCT-116 colon, 32.8 µM; in the test on HOP-62 NSCLC it was above 100 µM; in the test on M14 melanoma it was 33.2 µM; with NCI-H460 lung it was 46.5 µM. In addition, the TGI is 31.9 µM in the test on NCI-H522 lung; 61.3 µM with OVCAR-4 ovarian; 88.5 µM with RPMI-8226 leukemia; 26.3 µM in the test with RXF 393 renal; 82.9 µM with SK-MEL-2 melanoma; 90.6 µM with SK-OV-3 ovarian. The results for the TGI with SR leukemia and with SW-620 colon were 83.7 µM and 16.5 µM, respectively.

Consider `C[C@@H]1O[C@]2(O)[C@@H]3CCCN3S(=O)(=O)CCN2C1=O`, for which the TGI in the test with A549 NSCLC, in the test with CCRF-CEM leukemia, with HCT-116 colon, with HOP-62 NSCLC, in the test with M14 melanoma and in the test with NCI-H460 lung was above 100 µM each time. The TGI with NCI-H522 lung, in the test with OVCAR-4 ovarian, in the test on RPMI-8226 leukemia, with RXF 393 renal, in the test on SK-OV-3 ovarian and in the test with SR leukemia was above 100 µM in each case. This compound came in with a TGI in the test with SW-620 colon above 100 µM.

Regarding `Clc1ccc(CCc2ccncn2)c(Cl)c1`, the TGI with A549 NSCLC, in the test on HCT-116 colon, in the test on HOP-62 NSCLC, in the test with M14 melanoma, in the test with NCI-H460 lung and in the test on NCI-H522 lung was above 100 µM each time. The TGI in the test on OVCAR-4 ovarian was above 100 µM; in the test on RPMI-8226 leukemia it was above 100 µM; in the test on RXF 393 renal, 82.4 µM; in the test on SK-MEL-2 melanoma it was above 100 µM; in the test with SK-OV-3 ovarian, above 100 µM; in the test with SW-620 colon it was above 100 µM.

`O=C(N/N=C(/c1nc2ccc([N+](=O)[O-])cc2[nH]c1=O)C(O)c1ccc([N+](=O)[O-])cc1)c1ccncc1` (stereo not given): the TGI with A549 NSCLC, with CCRF-CEM leukemia, with HCT-116 colon, in the test on HOP-62 NSCLC, in the test on M14 melanoma and with NCI-H460 lung was above 100 µM each time. The TGI in the test on NCI-H522 lung, in the test with OVCAR-4 ovarian, in the test on RPMI-8226 leukemia, with SK-MEL-2 melanoma, in the test on SK-OV-3 ovarian and in the test with SR leukemia was above 100 µM throughout. In the test on SW-620 colon, this compound registered a TGI above 100 µM.

`[N-]=[N+]=Nc1ccc2c(c1)Sc1ccccc1N2CCCCN1CCN(Cc2ccc(C(=O)c3ccc(CSCC(N)C(=O)O)cc3)cc2)CC1` (stereo not given): the TGI in the test with CCRF-CEM leukemia is above 100 µM; in the test with HCT-116 colon it was 29.5 µM; with HOP-62 NSCLC, 57.3 µM; in the test on MCF7 breast it was 54.4 µM; with NCI-H460 lung, above 100 µM; in the test on NCI-H522 lung, 33.7 µM. The TGI in the test on OVCAR-4 ovarian was above 100 µM; with PC-3 prostate, above 100 µM; with RPMI-8226 leukemia it was above 100 µM; in the test with RXF 393 renal it was above 100 µM; in the test on SK-MEL-2 melanoma, 48.1 µM; in the test on SK-OV-3 ovarian it was above 100 µM. In the test with SW-620 colon, this compound registered a TGI of 4.79 µM.

Turning to `CCCCCCSCC/C(C)=N\OC`, the TGI with A549 NSCLC, in the test on CCRF-CEM leukemia, with HCT-116 colon, in the test with HOP-62 NSCLC, in the test with M14 melanoma and with MCF7 breast was above 100 µM in each case. Besides, the TGI in the test on NCI-H460 lung, with NCI-H522 lung, in the test on OVCAR-4 ovarian, in the test with PC-3 prostate, in the test with RPMI-8226 leukemia and in the test with RXF 393 renal was above 100 µM throughout. Moreover, the TGI in the test with SK-MEL-2 melanoma, in the test with SK-OV-3 ovarian and in the test with SW-620 colon was above 100 µM in each case.

(Values after PubChem BioAssay (NCI).)
